In US20250164397A1, “SULPHIDE SENSOR” (Oxford University Innovation Limited, priority 2021, published 2025):

What was measured:
[1] = cited from earlier work
[2] = Solution-phase fluorescence sensing of BODIPY receptors in 70% water/30% acetonitrile; format: binding
From the text: (§1) Any observed fluorescence quenching in water could be readily circumvented by addition of a small amount of organic co-solvent. Preliminary solution-phase fluorescence sensing studies of both receptors were thus carried out in 70% water/30% acetonitrile.

Water solubility = format: physicochemical
[3] = Fluorescence titration with NaCl, Bindfit 1:1 analysis, pH 7.4 10 mM aqueous HEPES buffer; format: binding; parameters: key to Association constant Ka Cl^−: NB: No binding observed; conditions: for Association constant Ka Cl^−: 10 μM receptors in 10 mM aqueous HEPES buffer solution, pH = 7.4, 1:1 host:guest, errors in brackets; for fluorescence response to Cl^−: excitation at 342 nm, pH 7.4 HEPES
Method: (§2) Fluorescence titration experiments were performed using a Horiba Duetta at 293 K. The host molecules (XB1-3, and HB1-3) were dissolved in 10 mM HEPES aqueous buffer solution at pH 7.4 at a concentration of 10 μM. Na salts of the appropriate anion were dissolved in the solution of the host molecule to obtain a concentration. Aliquots of the anion solution were added to 1.00 mL of the host solution in a quartz cuvette, where the sample was then thoroughly mixed before fluorescence spectra were recorded. Association constants were obtained by global analysis using BindFit, using a host-guest 1:1 binding model.
(§3) The anion sensing properties were investigated in pH 7.4 aqueous HEPES buffer solution using fluorescence spectroscopy. At this pH value the protonated forms XB3H^+ and HB3H^+ are the dominant receptor species present in the aqueous solution. The amine pKa of XB3 (10.29) and HB3 (9.98) were experimentally determined by monitoring changes in fluorescence with pH. (FIG. 16).
(§4) The fluorescence emission, following excitation at 342 nm, was monitored upon the addition of sodium hydrosulfide and halide salts.
(§5) With XB2, both Br^− and I^− were sensed (FIG. 11), with the heavier halide also being detected by XB3H^+ (FIG. 13).
(§6) Bindfit analysis^23,24 of the titration data for XB and HB receptors was used to determine 1:1 host: guest stoichiometric anion association constants, as shown below in Table 1.

[4] = Fluorescence titration with NaBr, Bindfit 1:1 analysis, pH 7.4 10 mM aqueous HEPES buffer; format: binding; parameters: key to Association constant Ka Br^−: NB: No binding observed; conditions: for Association constant Ka Br^−: 10 μM receptors in 10 mM aqueous HEPES buffer solution, pH = 7.4, 1:1 host:guest, errors in brackets; for fluorescence response to Br^−: excitation at 342 nm, pH 7.4 HEPES
Method: as §2, §3, §4, §5, §6

[5] = Fluorescence titration with NaI, Bindfit 1:1 analysis, pH 7.4 10 mM aqueous HEPES buffer; format: binding; parameters: key to Association constant Ka I^−: NB: No binding observed; conditions: for Association constant Ka I^−: 10 μM receptors in 10 mM aqueous HEPES buffer solution, pH = 7.4, 1:1 host:guest, errors in brackets; for fluorescence response to I^−: excitation at 342 nm, pH 7.4 HEPES
Method: as §2, §3, §4, §5, §6

[6] = Fluorescence titration with NaHS, Bindfit 1:1 analysis and LoD, pH 7.4 10 mM aqueous HEPES buffer; format: binding; parameters: key to Association constant Ka HS^− / LoD, Limit of Detection for HS−: NB: No binding observed; conditions: for Association constant Ka HS^−: 10 μM receptors in 10 mM aqueous HEPES buffer solution, pH = 7.4, 1:1 host:guest, errors in brackets; for LoD, Limit of Detection for HS−: 10 μM receptors in 10 mM aqueous HEPES buffer, pH 7.4
Method: as §2, §3
The fluorescence emission, following excitation at 342 nm, was monitored upon the addition of sodium hydrosulfide and halide salts. […]
as §6

[7] = Fluorescence emission change on addition of NaCl, NaBr, NaI, NaHS in pH 7.4 HEPES buffer (any anion); format: binding
Method: as §2, §4, §5

[8] = Fluorescence response of BODIPY receptors in H2O/30% ACN upon titration with various anions; format: binding; conditions: 70% water/30% acetonitrile
From the text: as §1

[9] = Fluorescence titration of XB4 with NaCl in unbuffered water, BindFit; format: binding; parameters: key: N.B.: No Binding; conditions: unbuffered water at 298 K; errors in parentheses
Method: (§7) Fluorescence titrations of XB4 were carried out with chloride, bromide, iodide and hydrosulfide.
(§8) BindFit analysis for each anion to determine binding isotherms (FIG. 20), and 1:1 stoichiometric association constants, shown in Table 2, was also conducted for XB4.

[10] = Fluorescence titration of XB4 with NaBr in unbuffered water, BindFit; format: binding; conditions: unbuffered water at 298 K
Method: as §7, §8

[11] = Fluorescence titration of XB4 with NaI in unbuffered water, BindFit; format: binding; conditions: unbuffered water at 298 K
Method: as §7, §8

[12] = Fluorescence titration of XB4 with NaSH in unbuffered water, BindFit; format: binding; conditions: unbuffered water at 298 K
Method: as §7, §8

[13] = Electrospray mass spectrometry monitoring for reaction with excess HS^−; format: physicochemical; conditions: 10 μM in 10 mM HEPES aqueous buffer (7.4 pH), excess equivalents of HS^−
From the text: (§9) However, the increase in binding strength comes at the expense of a diminished degree of selectivity for HS^− as XB2 also binds Br^− and in particular I^− strongly.

[14] = pKa determined by monitoring changes in fluorescence with pH; format: physicochemical; conditions: for pKa1 / pKa2: emission intensity change with changing pH; for amine pKa: monitoring changes in fluorescence with pH
From the text: FIG. 16. XB3: a) XB3 emission intensity change with decreasing pH; b) Emission intensity change for select wavelengths with changing pH; pKa1=4.07 (±0.01), pKa2=10.29 (±0.01). HB3: a) HB3 emission intensity change with decreasing pH; b) Emission intensity change for select wavelengths with changing pH; pKa1=5.91 (±0.07), pKa2=9.98 (±0.01).
as §3

[15] = Fluorescence titration of buffered receptor against NaOH; conditions: buffered 10 μM receptor
From the text: as §9

[16] = excitation at 342 nm, pH 7.4 HEPES

## S [Compound H2S, hydrogen sulphide]
[1]
  pKa: 7.0

## COCCOCCOCCOc1cc(COC(=O)c2cc(-n3nnc(C4=C5C(C)=CC(C)=[N+]5[B-](F)(F)n5c(C)cc(C)c54)c3I)cc(-n3nnc(C4=C5C(C)=CC(C)=[N+]5[B-](F)(F)n5c(C)cc(C)c54)c3I)c2)cc(OCCOCCOCCOC)c1OCCOCCOCCOC [XB-BDP-PEG]
[2]
  fluorescence perturbation by I^−: Smaller, but notable, perturbations
  fluorescence perturbation by SCN^−: Smaller, but notable, perturbations
  fluorescence response to Br: only very small responses
  fluorescence response to Cl: only very small responses
[2]; preliminary
  emission quenching by HS^−: ≈ 65%
Water solubility
  water solubility: generally water soluble

## COCCOCCOCCOc1cc(COc2ccc3cc(-n4cc(-c5cncc(-c6cn(-c7cc8ccc(OCc9cc(OCCOCCOCCOC)c(OCCOCCOCCOC)c(OCCOCCOCCOC)c9)cc8oc7=O)nn6)c5)nn4)c(=O)oc3c2)cc(OCCOCCOCCOC)c1OCCOCCOCCOC [HB1, reference compound]
[3]
  Association constant Ka Cl^−: NB
[4]
  Association constant Ka Br^−: NB
[5]
  Association constant Ka I^−: NB
[6]
  Association constant Ka HS^−: NB
  LoD, Limit of Detection for HS−: NB
[7]
  fluorescent response to any anion: only minor fluorescence perturbations

## COCCOCCOCCOc1cc(COC(=O)c2cc(-n3cc(C4=C5C(C)=CC(C)=[N+]5[B-](F)(F)n5c(C)cc(C)c54)nn3)cc(-n3cc(C4=C5C(C)=CC(C)=[N+]5[B-](F)(F)n5c(C)cc(C)c54)nn3)c2)cc(OCCOCCOCCOC)c1OCCOCCOCCOC [HB-BDP-PEG, reference compound]
[8]
  response for all anions, in particular HS^−, compared with XB-BDP-PEG: significantly diminished
Water solubility
  water solubility: generally water soluble

## COCCOCCOCCN(CCCOc1ccc2cc(-n3nnc(CNCc4nnn(-c5cc6ccc(OCCCN(CCOCCOCCOC)CCOCCOCCOC)cc6oc5=O)c4I)c3I)c(=O)oc2c1)CCOCCOCCOC [XB4]
[9]
  Association constant Ka Cl^−: N.B.
[10]
  coumarin fluorescence response to bromide: switching off
[10]; errors in parentheses
  Association constant Ka Br^−: >10^5 M^−1
[11]
  coumarin fluorescence response to iodide: switching off
[11]; errors in parentheses
  Association constant Ka I^−: >10^5 M^−1
[12]
  coumarin fluorescence response to hydrosulfide: switching off
[12]; errors in parentheses
  Association constant Ka HS^−: 7500 (660) M^−1

## COCCOCCOCCOc1cc(COc2ccc3cc(-n4nnc(-c5cc(-c6nnn(-c7cc8ccc(OCc9cc(OCCOCCOCCOC)c(OCCOCCOCCOC)c(OCCOCCOCCOC)c9)cc8oc7=O)c6I)c[n+](C)c5)c4I)c(=O)oc3c2)cc(OCCOCCOCCOC)c1OCCOCCOCCOC.O=S(=O)([O-])C(F)(F)F [XB2]
[3]
  Association constant Ka Cl^−: NB
  fluorescence response to Cl^−: no change was observed
[4]
  Association constant Ka Br^−: 60800 M⁻¹
  fluorescence response to Br^−: sensed
[5]
  Association constant Ka I^−: 103000 (24000) M^−1
  fluorescence response to I^−: sensed
[6]
  Association constant Ka HS^−: 158000 (31000) M^−1
[6]; [16]
  quenching on addition of HS^−: 45%

## COCCOCCOCCOc1cc(COc2ccc3cc(-n4nnc(-c5cncc(-c6nnn(-c7cc8ccc(OCc9cc(OCCOCCOCCOC)c(OCCOCCOCCOC)c(OCCOCCOCCOC)c9)cc8oc7=O)c6I)c5)c4I)c(=O)oc3c2)cc(OCCOCCOCCOC)c1OCCOCCOCCOC [XB1]
[3]
  Association constant Ka Cl^−: NB
  fluorescence response to Cl^−: no intensity diminutions
[4]
  Association constant Ka Br^−: NB
  fluorescence response to Br^−: no intensity diminutions
[5]
  Association constant Ka I^−: NB
  fluorescence response to I^−: no intensity diminutions
[6]
  Association constant Ka HS^−: 16500 (1600) M^−1
[6]; 10 equivalents of HS^−, excitation at 342 nm, pH 7.4 HEPES
  fluorescence intensity quenched: 60%
[13]
  reaction with HS^− (electrospray mass spectrometry): no evidence of reaction was observed

## COCCOCCOCCOc1cc(COc2ccc3cc(-n4nnc(CNCc5nnn(-c6cc7ccc(OCc8cc(OCCOCCOCCOC)c(OCCOCCOCCOC)c(OCCOCCOCCOC)c8)cc7oc6=O)c5I)c4I)c(=O)oc3c2)cc(OCCOCCOCCOC)c1OCCOCCOCCOC [XB3]
[3]
  Association constant Ka Cl^−: NB
  fluorescence response to Cl^−: no change was observed
[4]
  Association constant Ka Br^−: NB
[5]
  Association constant Ka I^−: 46000 (14000) M^−1
  fluorescence response to I^−: detected
[6]
  Association constant Ka HS^−: 5600 (530) M^−1
[6]; listed as XB3H^+
  LoD, Limit of Detection for HS−: 24.6 µM
[6]; [16]
  quenching on addition of HS^−: 38%
[14]
  pKa1: 4.07 (±0.01)
  pKa2: 10.29 (±0.01)
  amine pKa: 10.29
[15]
  change in fluorescence on titration against NaOH: no change in fluorescence

## COCCOCCOCCOc1cc(COc2ccc3cc(-n4cc(CNCc5cn(-c6cc7ccc(OCc8cc(OCCOCCOCCOC)c(OCCOCCOCCOC)c(OCCOCCOCCOC)c8)cc7oc6=O)nn5)nn4)c(=O)oc3c2)cc(OCCOCCOCCOC)c1OCCOCCOCCOC [HB3, reference compound]
[3]
  Association constant Ka Cl^−: NB
[4]
  Association constant Ka Br^−: NB
[5]
  Association constant Ka I^−: NB
[6]
  Association constant Ka HS^−: NB
  LoD, Limit of Detection for HS−: NB
[7]
  fluorescent response to any anion: no fluorescent response to any anion
[14]
  pKa1: 5.91 (±0.07)
  pKa2: 9.98 (±0.01)
  amine pKa: 9.98
